Results taken from patent publication US12280090B2, “Antimicrobial peptides” (priority 2018, dated 2025).
In brackets after ≈: the same amount, converted by molar mass. Like-named read-outs stand apart in the source and are kept apart here. Ends that are not written are not given here. Peptide text beside a SMILES is read from it.

Tests used:
Assay type in all cases: cell-based
[1] = tested on: Mycobacterium smegmatis (MC^2155)
Procedure: (§1) Microtiter broth dilution assays. HP2, HP3, and HP5 peptides are comprised of novel sequences that have not yet been described in the AMP literature. A common method for establishing antimicrobial activity of peptides is to perform microtiter broth assays. Microtiter broth dilution methods were implemented for determination of the minimum inhibitory concentration (MIC) and minimum bactericidal concentration (MBC). HP3 and HP5 were tested in addition to Ranatuerin-1/HP4 peptide as a positive control. HP2 could not be tested because multiple peptide synthesis attempts failed. The human cathelicidin, LL-37^30 was used as an additional positive control, and an unrelated similarly sized cationic peptide from the T. pallidum protein Tp0751 was used as a negative control. The potential AMPs were tested against bacteria representative of all three types of known cell envelope (Gram-positive, negative, and the complex and unique mycobacterial cell wall/envelope), given that a major mechanism used by AMPs is cell wall/membrane targeting.
(§2) Microtiter broth dilution assays. To test for antimicrobial activity, HP3, HP4/Ranatuerin-1, and HP5, peptides were synthesized by GenScript (Piscataway, New Jersey, USA). HP2 was not tested because the service provider was unable to synthesize this peptide despite multiple attempts. An unrelated, similarly-sized peptide from the Treponema pallidum protein Tp0751^55 was used as a negative control and the human cathelicidin, LL-37^30, was included as a positive control. Peptides were dissolved in filter-sterilized ultrapure water and tested for sterility by plating on non-selective agar plates followed by a 48 h incubation at 37° C. Two-fold serial dilutions of each peptide were prepared to obtain a series corresponding to ten times the required testing concentrations (2560, 1280, 640, 320, 160, 80, 40, 20, 10, and 5 μg/mL)^29.
(§3) Microtiter broth dilution methods were implemented for determination of the minimum inhibitory concentration (MIC) and minimum bactericidal concentration (MBC) of the four putative AMPs and the negative control peptide using procedures adapted from the R.E.W. Hancock Laboratory for cationic AMPs^29 and the CLSI methods for dilution antimicrobial susceptibility tests^56.
(§4) To assess antimicrobial activity across a diverse range of bacterial species, colonies were cultured overnight on Mueller Hinton agar plates (MHA; +5% sheep blood for S. pyogenes)^56 from frozen glycerol stock. Bacteria tested include Gram-negative rods (Escherichia coli: ATCC 9723H; Pseudomonas aeruginosa: ATCC 10148), Gram-positive cocci (Staphylococcus aureus: ATCC 6538P; Streptococcus pyogenes: unknown strain, hospital isolate), and Mycobacterium smegmatis (MC^2155; classified as neither Gram-positive nor Gram-negative). Bacterial suspensions were prepared by placing 3-5 morphologically similar colonies from the grown plate into sterile glass culture tubes containing 2 mL of Mueller Hinton Broth (MHB; +5% lysed horse blood for S. pyogenes) 56. Microbial inoculums from bacterial suspensions were prepared through a spectrophotometric adjustment of turbidity to 0.08-0.1 at 600 nm to achieve a turbidity equivalent to that of a 0.5 McFarland standard (1-2×10^8 CFU/mL)^29. The standardized bacterial inoculums were then diluted in MHB to obtain final cell densities of approximately […].
(§5) Ninety-six-well microtiter plates (Fisher Cat. No. CS003790; Nepean, Ontario, Canada) were prepared with 100 μL of E. coli, P. aeruginosa, S. aureus, S. pyogenes, or M. smegmatis bacterial suspension (5×10^5 CFU/mL) dispensed into each well of columns 1 through 11. Eleven microliters of the 10×AMP dilution series for all four peptides were added to each well from column 1 (2560 μg/mL) to column 10 (5 μg/mL) in all plates. Column 11 functioned as a positive control for bacterial growth in the absence of AMPs. Column 12 in each plate contained 100 μL of MHB as a sterility control (+5% lysed horse blood for S. pyogenes)^56. […]

[2] = tested on: Staphylococcus aureus: ATCC 6538P
Procedure: as §1, §2, §3, §4, §5

[3] = tested on: Escherichia coli: ATCC 9723H
Procedure: as §1, §2, §3, §4, §5

[4] = tested on: Pseudomonas aeruginosa: ATCC 10148
Procedure: as §1, §2, §3, §4, §5

[5] = tested on: Streptococcus pyogenes: unknown strain, hospital isolate
Procedure: as §1, §2, §3, §4, §5

[6] = unknown strain, hospital isolate

Compound | MBC ([1]; Mycobacterium (MC^2155)) | MIC ([1]; Mycobacterium (MC^2155)) | MBC ([2]; ATCC 6538) | MIC ([2]; ATCC 6538) | MBC ([3]; ATCC 9723) | MIC ([3]; ATCC 9723) | MBC ([4]; ATCC 10148) | MIC ([4]; ATCC 10148) | MBC [5, 6] | MIC [5, 6] | MBC ([1]; M. smegmatis (Table 5)) | MBC ([2]; S. aureus (Table 5)) | MBC ([3]; E. coli (Table 5)) | MBC ([4]; P. aeruginosa (Table 5)) | MBC ([5]; S. pyogenes (Table 5))
SNRDFFKVNIFRLCG [Peptide P10_CCH, SNRDFFKVNIFRLCG] | >256 µg/mL | >256 µg/mL | >256 µg/mL | >256 µg/mL | >256 µg/mL | >256 µg/mL | >256 µg/mL | >256 µg/mL | >256 µg/mL | >256 µg/mL |  |  |  |  | 
LRCPTPHYNFENGIGNHLMWNIIWLNAQQMSYKNK [Peptide P15_CCH] | >256 µg/mL | >256 µg/mL | >256 µg/mL | >256 µg/mL | >256 µg/mL | >256 µg/mL | >256 µg/mL | >256 µg/mL | >256 µg/mL | >256 µg/mL |  |  |  |  | 
CC[C@H](C)[C@H](N)C(=O)N[C@@H](CCC(N)=O)C(=O)N[C@@H](CCCNC(=N)N)C(=O)N[C@@H](CC(C)C)C(=O)N1CCC[C@H]1C(=O)N[C@H](C(=O)N[C@H](C(=O)N[C@H](C(=O)N[C@H](C(=O)N[C@@H](CC(C)C)C(=O)N1CCC[C@H]1C(=O)N[C@@H](CO)C(=O)N[C@@H](CC(C)C)C(=O)N[C@@H](Cc1ccc(O)cc1)C(=O)N[C@@H](CS)C(=O)N[C@H](C(=O)N[C@H](C(=O)N[C@@H](CS)C(=O)N[C@@H](CCCNC(=N)N)C(=O)N[C@H](C(=O)N[C@@H](CS)C(=O)O)[C@@H](C)O)[C@@H](C)CC)C(C)C)[C@@H](C)CC)C(C)C)[C@@H](C)CC)C(C)C [Peptide P14_CCH] (H-IQRLPVIVILPSLYCVICRTC-OH; N-terminus and C-terminus assumed) | >256 µg/mL | >256 µg/mL | >256 µg/mL | >256 µg/mL | >256 µg/mL | >256 µg/mL | >256 µg/mL | >256 µg/mL | >256 µg/mL | >256 µg/mL |  |  |  |  | 
CC[C@H](C)[C@H](NC(=O)[C@H](C)NC(=O)[C@@H]1CCCN1C(=O)[C@@H](N)Cc1ccccc1)C(=O)N[C@H](C(=O)N[C@@H](CS)C(=O)N[C@@H](CCCCN)C(=O)N[C@H](C(=O)N[C@@H](CO)C(=O)N[C@@H](CCCCN)C(=O)N[C@@H](CC(N)=O)C(=O)N[C@@H](CS)C(=O)O)C(C)C)[C@@H](C)CC [Peptide P8_CCH, FPAIICKVSKNC] (H-FPAIICKVSKNC-OH; N-terminus and C-terminus assumed) |  | 128 µg/mL (≈ 96.8 µM) | >256 µg/mL | >256 µg/mL | >256 µg/mL | >256 µg/mL | >256 µg/mL | >256 µg/mL | >256 µg/mL | >256 µg/mL |  |  |  |  | 
FYFPVSRKFGGK [Peptide P1_CCH, FYFPVSRKFGGK] |  |  |  | >256 µg/mL |  | >256 µg/mL |  | >256 µg/mL |  | >256 µg/mL | > 256 µg/mL | > 256 µg/mL | > 256 µg/mL | > 256 µg/mL | > 256 µg/mL
